# Measurements from paper PMC4770093, “The role of kinetic context in apparent biased agonism at GPCRs” (Nature Communications, 2016).
# Read-outs that look alike come from different tables or passages of the source.
# Tests used:
# D2LR [1] = biological target: T1, D2LR (Homo sapiens, UniProt P14416); assay: GαoB G protein activation (BRET); type: cell-based; parameters: expressed in transfected cells; conditions: for Emax: relative to the maximal response of ropinirole;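 as to all read-outs here: Flp-In-CHO cells stably expressing D2LR, transiently transfected, agonist-stimulated in HBSS at 37 °C, net BRET read after coelenterazine, vehicle control subtracted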
# T1 sequence (P14416 whole entry): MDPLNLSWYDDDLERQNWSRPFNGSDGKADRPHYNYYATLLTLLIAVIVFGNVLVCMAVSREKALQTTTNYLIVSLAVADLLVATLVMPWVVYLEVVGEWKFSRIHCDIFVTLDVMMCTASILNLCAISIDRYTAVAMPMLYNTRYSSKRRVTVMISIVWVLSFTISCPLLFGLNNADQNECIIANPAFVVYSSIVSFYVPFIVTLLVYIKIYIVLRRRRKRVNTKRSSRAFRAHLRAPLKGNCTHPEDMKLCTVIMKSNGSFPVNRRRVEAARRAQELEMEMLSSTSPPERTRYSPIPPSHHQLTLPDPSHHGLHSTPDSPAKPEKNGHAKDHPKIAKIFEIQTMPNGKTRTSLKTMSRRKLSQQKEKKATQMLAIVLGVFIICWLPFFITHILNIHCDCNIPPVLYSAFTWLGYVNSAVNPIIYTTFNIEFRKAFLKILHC
# Description: (§1) G protein activation. Flp-In-CHO cells stably expressing the D2LR were seeded at a density of 2,000,000 cells per 10-cm dish and were transfected the following day using polyethylenimine as the transfection reagent. […] Twenty-four hours after transfection, the cells were plated into 96-well CulturPlates (PerkinElmer) and grown overnight. The cells were equilibrated in Hank's balanced salt solution at 37 °C before starting the experiment. The cells were stimulated with the agonists for the indicated timeframes when the BRET readings were captured. Coelenterazine (Promega) was added at a final concentration of 5 μM at least 3 min before measurement. […] Net BRET was determined by subtraction of the vehicle control from the agonist-induced response.
# D2LR [2] = biological target: T1, D2LR; assay: Quantification of biased agonism between pathways (operational model, LogBias); type: cell-based; parameters: expressed in transfected cells
# Description: where Top and Bottom represent the maximal and minimal asymptote of the dose–response curve, [A] is the molar concentration of agonist and EC50 is the molar concentration of agonist required to give a response half way between bottom and top. Dose–response data were fitted to the following form of the operational model of agonism[12] to allow the quantification of biased agonism
# where Em is the maximal possible response of the system, Basal is the basal level of response, KA represents the equilibrium dissociation constant of the agonist (A) and τ is an index of the signalling efficacy of the agonist that is defined as RT/KE, where RT is the total number of receptors and KE is the coupling efficiency of each agonist-occupied receptor, and n is the slope of the transducer function that links occupancy to response. The analysis assumes that the transduction machinery used for a given cellular pathway are the same for all agonists, such that the Em and transducer slope (n) are shared between agonists. Data for all compounds for each pathway were fit globally, to determine values of KA and τ. Biased agonism was quantified as previously described. […] The relative bias can then be calculated for each agonist at the two different signalling pathways by subtracting the Δlog(τ/KA) of one pathway from the other to give a ΔΔlog(τ/KA) value, which is a measure of bias. […] All affinity (pKi or pKA), potency (pEC50) and transduction ratio (log(τ/KA)) parameters were estimated as logarithms. When fold changes in bias are described, this was calculated by converting values of ΔΔlog(τ/KA) to the corresponding antilog value. […] Thus, as the application of t-tests and analyses of variance assume Gaussian distribution, estimating the parameters as logarithms allows valid statistical comparison. All results are expressed as the mean±s.e.m. As such, we performed a Brown–Forsythe test (Graphpad prism 6) to assure ourselves of equal variance when such parameters are compared.
# D2LR [3] = biological target: T1, D2LR; assay: xCELLigence cellular impedance (CI) assay; type: cell-based; parameters: expressed in transfected cells; conditions: for Emax: relative to the maximal response of ropinirole
# Description: Changes in CI on ligand stimulation were measured using the xCELLigence system (Roche Applied Science). The baseline cell index of each well of a 96-well E-plate was measured in the presence of growth medium before cell seeding. Cells were seeded at a density of 20,000 cells per well and grown for 16–20 h followed by 4 h serum starvation. Cells were treated with the ligands and the cell index values were obtained immediately after ligand stimulation every 15 s for a total time of 90 min. The retrieved cell index values were then normalized by dividing the cell index at the time of ligand addition followed by subtraction of the vehicle control at each time point.
# D2LR [4] = biological target: T1, D2LR; assay: [3H]spiperone kinetic (dissociation, association, competition association) binding; parameters: expressed in transfected cells; conditions: [3H]spiperone tracer
# Description: (§2) The cells were harvested in PBS containing 2 mM EDTA and centrifuged at 300 g for 3 min. The resulting pellet was resuspended in ice-cold assay buffer (20 mM HEPES, 100 mM NaCl, 6 mM MgCl2, 1 mM EGTA and 1 mM EDTA pH 7.4) and the centrifugation step was repeated. The intact cell pellet was then resuspended in assay buffer and homogenized using a Polytron homogenizer. After centrifugation (1,000 g, 10 min), the pellet was discarded and the supernatant was recentrifuged at 30,000 g for 1 h at 4 °C using a Sorvall Evolution RC ultracentrifuge (Thermo Scientific). The resulting pellet was resuspended in assay buffer and stored in 250 μl aliquots at −80 °C. Membrane protein concentration was determined using the method of Bradford.
# (§3) All radioligand binding experiments were conducted at 37 °C in a 1-ml reaction volume in assay buffer (20 mM HEPES, 100 mM NaCl, 6 mM MgCl2, 1 mM EGTA and 1 mM EDTA pH 7.4) containing 100 μM GppNHp and 0.1% ascorbic acid. In all cases, nonspecific binding was determined in the presence of 10 μM haloperidol. […] Filter-bound radioactivity was measured by scintillation spectrometry after the addition of 3.5 ml of Ultima Gold (PerkinElmer) using a Tri-Carb 2900TR liquid scintillation counter (PerkinElmer).
# The kinetic parameters of unlabelled agonists were determined using the equations described by Motulsky and Mahan[31]. […]
# D2LR [5] = biological target: T1, D2LR; assay: Gαi1 G protein activation (BRET); type: cell-based; parameters: expressed in transfected cells
# Description: as §1
# D2LR [6] = biological target: T1, D2LR; assay: β-Arrestin-2 recruitment (BRET); type: cell-based; parameters: expressed in transfected cells
# Description: β-Arrestin-2 recruitment. […] To assess β-arrestin-2 recruitment to the D2LR, the cells were transfected with 1 μg Rluc8-tagged D2LR, 4 μg YFP–β-arrestin-2 and 2 μg GRK2. […] The cells were incubated with Coelenterazine (Promega) at a final concentration of 5 μM for 5 min, followed by stimulation with the agonists for an additional 5 min before the BRET readings were captured.
# D2LR [7] = biological target: T1, D2LR; assay: biochemical
# Description: as §2, §3
# where Y denotes the percentage-specific binding, Top and Bottom denote the maximal and minimal asymptotes, respectively, IC50 denotes the X-value when the response is midway between Bottom and Top, and nH denotes the Hill slope factor. IC50 values obtained from the inhibition curves were converted to Ki values using the Cheng and Prusoff equation[61].
# D2R = assay: Simulation of receptor occupancy over time from kon and koff; conditions: simulation with a KD concentration of each agonist
# Description: We extended these studies with a Tag-lite receptor binding assay using a D2R construct with an amino-terminal SNAP tag and the fluorescently labelled agonist (±)-4′-amino-2-(N-phenethyl-N-propyl)-amino-5-hydroxytetralin (PPHT). […] The association rate of a ligand is often thought to be diffusion limited. […] Using these kinetic parameters, we performed a simulation to estimate the receptor occupancy of a KD concentration of each agonist over time (Fig. 4e).
# Kinetic binding parameters of kon (a), koff (b) and t1/2 (c) were determined in a competition kinetic binding assay using a Tag-lite binding assay and the fluorescently labelled agonist PPHT as the tracer ligand (Supplementary Table 6). […] All values are expressed as mean±s.e.m. from three experiments. (e) The values of kon and koff obtained in the competition kinetic assay were used to simulate receptor occupancy over time using equation (9) and the concentration of ligand equivalent to its KD (see Supplementary Table 6).
# where Ymax reflects maximum binding of a concentration of ligand and kob is determined by equation (8).
# [8] = 5 minute timepoint, Flp-In-CHO-D2LR
# [9] = 5 minute timepoint, dopamine as reference agonist
smiles,measurement,setting,value
"O=c1[nH]c2cccc(N3CCN(Cc4cccc(-c5ccccc5)c4)CC3)c2o1 [Bifeprunox, bifeprunox]",EC50,D2LR [1]; 2 min,52.5 nM
same,Emax,D2LR [1]; 2 min,94 ± 3.8%
same,EC50,D2LR [1]; 5 min,26.9 nM
same,Emax,D2LR [1]; 5 min,80%
same,Log(τ/KA) GαoB activation,D2LR [1]; [8],7.50 ± 0.10
same,ΔLog(τ/KA) GαoB activation,D2LR [1]; [9],0.26 ± 0.13
same,EC50,D2LR [1]; 10 min,12.9 nM
same,Emax,D2LR [1]; 10 min,77%
same,EC50,D2LR [1]; 15 min,7.59 nM
same,Emax,D2LR [1]; 15 min,79%
same,EC50,D2LR [1]; 30 min,4.07 nM
same,Emax,D2LR [1]; 30 min,87 ± 2.5%
same,EC50,D2LR [1]; 45 min,3.02 nM
same,Emax,D2LR [1]; 45 min,88 ± 2.4%
same,EC50,D2LR [1]; 60 min,3.24 nM
same,EC50,D2LR [1]; 75 min,2.19 nM
same,EC50,D2LR [1]; 90 min,2.14 nM
same,Emax,D2LR [1]; 90 min,90 ± 3.2%
same,LogBias CI – pERK1/2,D2LR [2]; [9],0.99 ± 0.14
same,LogBias Gαi1 – CI,D2LR [2]; [9],1.68 ± 0.16
same,LogBias Gαi1 – GαoB,D2LR [2]; [9],1.17 ± 0.19
same,LogBias Gαi1 – cAMP,D2LR [2]; [9],1.61 ± 0.16
same,LogBias Gαi1 – pERK1/2,D2LR [2]; [9],2.67 ± 0.18
same,LogBias GαoB – CI,D2LR [2]; [9],0.51 ± 0.15
same,LogBias GαoB – cAMP,D2LR [2]; [9],0.43 ± 0.14
same,LogBias GαoB – pERK1/2,D2LR [2]; [9],1.50 ± 0.17
same,LogBias cAMP – CI,D2LR [2]; [9],0.08 ± 0.11
same,LogBias cAMP – pERK1/2,D2LR [2]; [9],1.06 ± 0.13
same,LogBias β-arr2 – CI,D2LR [2]; [9],-0.33 ± 0.22
same,LogBias β-arr2 – Gαi1,D2LR [2]; [9],-2.01 ± 0.25
same,LogBias β-arr2 – GαoB,D2LR [2]; [9],-0.84 ± 0.24
same,LogBias β-arr2 – cAMP,D2LR [2]; [9],-0.41 ± 0.22
same,LogBias β-arr2 – pERK1/2,D2LR [2]; [9],0.66 ± 0.24
same,EC50,D2LR [3]; 2 min,16.2 nM
same,Emax,D2LR [3]; 2 min,61 ± 4%
same,EC50,D2LR [3]; 5 min,3.47 nM
same,Emax,D2LR [3]; 5 min,67 ± 3%
same,Log(τ/KA) Cellular impedance,D2LR [3]; [8],8.30 ± 0.07
same,ΔLog(τ/KA) Cellular impedance,D2LR [3]; [9],-0.25 ± 0.08
same,EC50,D2LR [3]; 10 min,1.58 nM
same,Emax,D2LR [3]; 10 min,57 ± 2.5%
same,EC50,D2LR [3]; 15 min,0.912 nM
same,Emax,D2LR [3]; 15 min,58 ± 2.8%
same,EC50,D2LR [3]; 30 min,0.55 nM
same,Emax,D2LR [3]; 30 min,53 ± 3.1%
same,EC50,D2LR [3]; 45 min,0.339 nM
same,Emax,D2LR [3]; 45 min,51 ± 2.3%
same,EC50,D2LR [3]; 60 min,0.263 nM
same,Emax,D2LR [3]; 60 min,49%
same,EC50,D2LR [3]; 75 min,0.229 nM
same,Emax,D2LR [3]; 75 min,46%
same,EC50,D2LR [3]; 90 min,0.2 nM
same,Emax,D2LR [3]; 90 min,44%
same,koff,"D2LR [4]; Flp-In-CHO-D2LR membranes, 100 μM GppNHp, 37 °C",0.000167 s⁻¹
same,Kd,D2LR [4]; read-out: pKd (affinity determined from kinetic parameters) (converted),0.1 nM
same,Log(τ/KA) Gαi1 activation,D2LR [5]; [8],8.60 ± 0.11
same,ΔLog(τ/KA) Gαi1 activation,D2LR [5]; [9],1.43 ± 0.14
same,Log(τ/KA) β-arrestin2,"D2LR [6]; 5 minute timepoint, ND = no agonist activity detected",5.75 ± 0.16
same,ΔLog(τ/KA) β-arrestin2,D2LR [6]; [9],-0.58 ± 0.21
same,Ki,D2LR [7],0.0437 nM
same,time to maximal receptor occupancy,D2R,> 90 min
"CCCN(CCC)CCc1cccc2c1CC(=O)N2 [Ropinirole, ropinirole]",Log(τ/KA) GαoB activation,D2LR [1],7.08 ± 0.08
same,pEC50 Gao,D2LR [1],7.33
same,ΔLog(τ/KA) GαoB activation,D2LR [1],-0.16 ± 0.11
same,EC50,D2LR [1]; 2 min,107 nM
same,Emax,D2LR [1]; 2 min,100%
same,EC50,D2LR [1]; 5 min,95.5 nM
same,Emax,D2LR [1]; 5 min,100%
same,EC50,D2LR [1]; 10 min,67.6 nM
same,Emax,D2LR [1]; 10 min,100%
same,Emax,D2LR [1]; 15 min,100%
same,EC50,D2LR [1]; 30 min,30.9 nM
same,Emax,D2LR [1]; 30 min,100%
same,EC50,D2LR [1]; 45 min,41.7 nM
same,Emax,D2LR [1]; 45 min,100%
same,EC50,D2LR [1]; 60 min,51.3 nM
same,Emax,D2LR [1]; 60 min,100%
same,EC50,D2LR [1]; 75 min,39.8 nM
same,Emax,D2LR [1]; 75 min,100%
same,EC50,D2LR [1]; 90 min,43.7 nM
same,Emax,D2LR [1]; 90 min,100%
same,change in potency over time in the GαoB activation assay,D2LR [1]; time points from 2 to 90 min,no change in potency
same,LogBias CI – pERK1/2,D2LR [2],-0.11 ± 0.10
same,LogBias Gαi1 – pERK1/2,D2LR [2],-0.31 ± 0.15
same,LogBias GαoB – pERK1/2,D2LR [2],-0.04 ± 0.14
same,LogBias cAMP – pERK1/2,D2LR [2],-0.27 ± 0.10
same,LogBias β-arr2 – pERK1/2,D2LR [2],0.26 ± 0.21
same,LogBias Gαi1 – CI,D2LR [2]; [9],-0.19 ± 0.15
same,LogBias Gαi1 – GαoB,D2LR [2]; [9],-0.26 ± 0.18
same,LogBias Gαi1 – cAMP,D2LR [2]; [9],-0.03 ± 0.15
same,LogBias GαoB – CI,D2LR [2]; [9],0.07 ± 0.13
same,LogBias GαoB – cAMP,D2LR [2]; [9],0.23 ± 0.13
same,LogBias cAMP – CI,D2LR [2]; [9],-0.16 ± 0.09
same,LogBias β-arr2 – CI,D2LR [2]; [9],0.38 ± 0.21
same,LogBias β-arr2 – Gαi1,D2LR [2]; [9],0.57 ± 0.24
same,LogBias β-arr2 – GαoB,D2LR [2]; [9],0.31 ± 0.23
same,LogBias β-arr2 – cAMP,D2LR [2]; [9],0.54 ± 0.21
same,Log(τ/KA) Cellular impedance,D2LR [3],8.32 ± 0.05
same,ΔLog(τ/KA) Cellular impedance,D2LR [3],-0.23 ± 0.06
same,EC50,D2LR [3]; 2 min,4.68 nM
same,Emax,D2LR [3]; 2 min,100%
same,EC50,D2LR [3]; 5 min,5.13 nM
same,Emax,D2LR [3]; 5 min,100%
same,EC50,D2LR [3]; 10 min,7.94 nM
same,Emax,D2LR [3]; 10 min,100%
same,EC50,D2LR [3]; 15 min,10.7 nM
same,Emax,D2LR [3]; 15 min,100%
same,EC50,D2LR [3]; 30 min,17 nM
same,Emax,D2LR [3]; 30 min,100%
same,EC50,D2LR [3]; 45 min,19.5 nM
same,Emax,D2LR [3]; 45 min,100%
same,EC50,D2LR [3]; 60 min,24 nM
same,Emax,D2LR [3]; 60 min,100%
same,EC50,D2LR [3]; 75 min,28.2 nM
same,Emax,D2LR [3]; 75 min,100%
same,EC50,D2LR [3]; 90 min,34.7 nM
same,Emax,D2LR [3]; 90 min,100%
same,Log(τ/KA) Gαi1 activation,D2LR [5],6.75 ± 0.09
same,ΔLog(τ/KA) Gαi1 activation,D2LR [5],-0.43 ± 0.13
same,Log(τ/KA) β-arrestin2,D2LR [6],6.48 ± 0.15
same,ΔLog(τ/KA) β-arrestin2,D2LR [6],0.14 ± 0.20
same,Ki,D2LR [7],2510 nM
same,time to maximal receptor occupancy,D2R,≤ 1 min
